Assay results taken from patent US20030147899A1, “Endogenous hormone adjuvant and uses thereof” (priority 1999, published 2003).
“Also recorded” adds a separate entry of the source.

Tests used:
[1] = test system: lymphocytes in cervical lymph nodes; assay: Cellularity of cervical lymph nodes draining the site of the skin DTH reaction; type: in vivo, rat; conditions: ADX animals, epinephrine 0.5 mg/kg, corticosterone 5 mg/kg, or both, OXA challenge 2 h after administration, 48 h after antigen exposure
Procedure: Animals were rapidly sacrificed and cervical lymph nodes were dissected and placed in sterile PBS on ice (n=3 per treatment group). Each lymph node was subsequently weighed and disrupted between the frosted ends of two microscope slides. Suspensions of leukocytes were prepared in PBS and stored on ice for cell counting, immunofluorescent staining, and flow cytometry. White blood cell counts and lymphocyte-neutrophil differentials were obtained on a hematology analyzer (F800, Sysmex, McGraw Park, Ill.). Specific leukocyte subtypes were measured by immunofluorescent antibody staining and subsequent analysis using three color flow cytometry (FACScan, Becton Dickinson, San Jose, Calif.). T cells were identified using the following monoclonal antibodies (Caltag, Burlingame, Calif.): CD3-FITC (1F4), CD4-PE (w3/25), CD8-TC (OX8). Briefly, cell suspensions were incubated with antibody for 20 min at room temperature, washed with PBS, and read on the FACScan with 3,000 to 5,000 events being acquired from each preparation. Appropriate isotype controls were used to set the negative criteria. Data were analyzed using Cell Quest software (Becton Dickinson, San Jose, Calif.). For all experiments, repeated measures were made on each animal. Significant differences between timepoints within a specific leukocyte subpopulation were analyzed using the Student's t-test as a test for significant differences between means. […] Data are expressed as mean ±SEM in all figures. A computer statistics package was used for statistical analyses (SYSTAT v5.2.1, Systat Inc., Evanston, Ill.).

[2] = test system: skin DTH, OXA challenge (pinna thickness); assay: Skin DTH response, hormones given before OXA challenge of previously sensitized ADX animals; type: in vivo, rat; conditions: for skin DTH vs vehicle: epinephrine 0.5 mg/kg, corticosterone 5 mg/kg, or both, OXA (0.75%) challenge 2 h after hormone administration
Procedure: (§1) Young adult, male Sprague Dawley rats (150-300 g) (Harlan Sprague Dawley, Indianapolis, Ind.) were housed in plastic cages in the accredited (American Association of Accreditation of Laboratory Animal Care) animal facilities of The Rockefeller University (New York, N.Y.). The animal room was maintained on a 12 h light-dark cycle (lights on 7 am). Animals were given rat chow and water ad libitum.
(§2) Bilateral adrenalectomy (ADX) was performed using standard aseptic surgical techniques on animals fully anesthetized with the inhalant, methoxyflurane (Metofane; Pitman-Moore, Washington Crossing, N.J.). Sham adrenalectomized (SHAM) animals went through exactly the same procedure as ADX animals except that their adrenals were not removed. ADX animals were maintained on a low normalizing dose of corticosterone (20 μg/ml) administered through drinking choice of water or 3% saline. This was necessary for restoring important permissive functions of corticosterone which are lost following ADX (18-20). […] Unlike constant replacement (via pellets or osmotic pumps), drinking water corticosterone also facilitates the normal termination of a stress-induced ACTH response (22, 23), and simulates the circadian corticosterone rhythm as animals drink at the beginning of the active period (16).
The concentration and timing of each hormone administered is listed in the text and 3 0 figures. […]
DTH was induced by challenging the pinnae of previously sensitized rats with 2,4-dinitro-1-fluorobenzene (DNFB, Sigma, St. Louis, Mo.) or oxazalone (OXA, Sigma, St. Louis, Mo). […] The thickness of both pinnae was recorded using a constant-loading dial micrometer (Mitutoyo, Japan). […] On day 5, baseline pinna thickness was measured. […] Pinna thickness was measured at the times shown. […]
For all experiments, repeated measures were made on each animal. Significant differences between timepoints within a specific leukocyte subpopulation were analyzed using the Student's t-test as a test for significant differences between means. […] Data are expressed as mean ±SEM in all figures. […]

[3] = test system: skin DTH, DNFB challenge (pinna thickness); assay: Skin DTH response, hormones given before DNFB challenge of previously sensitized animals; type: in vivo, rat
Procedure: as §1, §2
The concentration and timing of each hormone administered is listed in the text and 3 0 figures. […] Epinephrine (Research Biochemicals International) was dissolved in sterile water.
DTH was induced by challenging the pinnae of previously sensitized rats with 2,4-dinitro-1-fluorobenzene (DNFB, Sigma, St. Louis, Mo.) or oxazalone (OXA, Sigma, St. Louis, Mo). On day 1 of sensitization, animals were anesthetized with the inhalant, methoxyflurane (Metofane; Pitman-Moore, Washington Crossing, N.J.). No anesthesia was used subsequently. An area of approximately 3×4 cm was shaved on the dorsum. The thickness of both pinnae was recorded using a constant-loading dial micrometer (Mitutoyo, Japan). On days 1 and 2 of sensitization, one hundred microliters of DNFB (1% (w/v) in 4:1, acetone:olive oil) or one hundred microliters of OXA (1.5% (w/v) in ethanol) were applied to the shaved dorsum. On day 5, baseline pinna thickness was measured. On day 6, after stress or hormone administration, the dorsal surface of the right pinnae of all animals was challenged with 50 μl of DNFB (0.5% in 4:1 acetone:olive oil) or OXA (0.75% in ethanol). Left pinnae were treated with vehicle. Pinna thickness was measured at the times shown. Measurements were made (on same relative region of pinna) gently and rapidly to avoid displacing or compressing edema fluid and changing pinna thickness.
The immune reaction induced using the above procedure, is characterized by swelling at the site of challenge, and by an infiltration of monocytes/macrophages and lymphocytes into the epidermis and dermis (29-31). A positive correlation between the intensity of the immune reaction and the increase in pinna thickness has been reported (32, 33). This model for skin DTH reactions has been widely used to monitor cell-mediated immune responses in vivo (30, 34).
For all experiments, repeated measures were made on each animal. Significant differences between timepoints within a specific leukocyte subpopulation were analyzed using the Student's t-test as a test for significant differences between means. […] Data are expressed as mean ±SEM in all figures. A computer statistics package was used for statistical analyses (SYSTAT v5.2.1, Systat Inc., Evanston, Ill.).

[4] = test system: DTH reaction mounted against OXA (pinna thickness); assay: Skin DTH response to OXA challenge, hormones given at sensitization (immunization) phase; type: in vivo, rat; conditions: hormone ip 2 h before sensitization with 1.5% OXA: epinephrine 0.5 mg/kg, corticosterone 5 mg/kg, or both; OXA ear challenge six days after immunization
Procedure: as §1
This was necessary for restoring important permissive functions of corticosterone which are lost following ADX (18-20). […] Unlike constant replacement (via pellets or osmotic pumps), drinking water corticosterone also facilitates the normal termination of a stress-induced ACTH response (22, 23), and simulates the circadian corticosterone rhythm as animals drink at the beginning of the active period (16).
No anesthesia was used subsequently. An area of approximately 3×4 cm was shaved on the dorsum. The thickness of both pinnae was recorded using a constant-loading dial micrometer (Mitutoyo, Japan).
On day 5, baseline pinna thickness was measured. […] Left pinnae were treated with vehicle.
The immune reaction induced using the above procedure, is characterized by swelling at the site of challenge, and by an infiltration of monocytes/macrophages and lymphocytes into the epidermis and dermis (29-31). […]

[5] = target: T1, corticosteroid binding globulin (Homo sapiens, UniProt P08185); conditions: plasma protein; cited from earlier work
T1 sequence (P08185 23-405): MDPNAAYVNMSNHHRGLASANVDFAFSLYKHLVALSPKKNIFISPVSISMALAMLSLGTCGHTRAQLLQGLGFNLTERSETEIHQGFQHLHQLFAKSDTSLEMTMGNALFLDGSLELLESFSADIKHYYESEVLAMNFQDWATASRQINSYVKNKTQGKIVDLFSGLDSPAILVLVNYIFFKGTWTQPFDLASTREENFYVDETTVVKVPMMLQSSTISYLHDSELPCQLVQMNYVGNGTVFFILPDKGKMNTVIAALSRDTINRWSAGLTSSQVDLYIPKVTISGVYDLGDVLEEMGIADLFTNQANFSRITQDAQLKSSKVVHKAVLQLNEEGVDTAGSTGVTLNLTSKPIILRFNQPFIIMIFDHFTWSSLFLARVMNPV

SMILES	lymphocyte numbers in cervical lymph nodes vs vehicle [1]	lymphocyte numbers in cervical lymph nodes vs vehicle ([1]; listed as Epinephrine)	skin DTH vs vehicle [2]	skin DTH vs vehicle ([3]; epinephrine 0.05, 0.25, 0.5 mg/kg, acute, ADX animals, DNFB challenge two hours after administration)	skin DTH vs vehicle ([3]; epinephrine 0.05, 0.25, 0.5 mg/kg, acute, ADX animals, DNFB challenge two hours after administration, listed as Epinephrine)	DTH response (immune reaction at challenge or recall phase) vs vehicle [4]	binding to corticosteroid binding globulin [5]	immuno-enhancement of skin DTH compared with epinephrine ([2]; corticosterone 5 mg/kg vs epinephrine 500 μg/kg, OXA challenge 2 h after administration)	skin DTH vs vehicle ([3]; corticosterone 400 μg/ml in drinking water, chronic (6 days), DNFB challenge)	skin DTH vs vehicle ([3]; corticosterone 400 μg/ml in drinking water, chronic (6 days), DNFB challenge, listed as Corticosterone)	skin DTH vs vehicle ([3]; corticosterone 5 mg/kg ip, acute, ADX animals, DNFB challenge two hours after administration)	skin DTH vs vehicle ([3]; corticosterone 5 mg/kg ip, acute, ADX animals, DNFB challenge two hours after administration, listed as Corticosterone)	skin DTH vs vehicle ([3]; corticosterone 100 or 400 μg/ml in drinking water for four hours (acute), adrenal-intact animals, DNFB challenge)	skin DTH vs vehicle ([3]; corticosterone 100 or 400 μg/ml in drinking water for four hours (acute), adrenal-intact animals, DNFB challenge, listed as Corticosterone)	skin DTH vs vehicle ([3]; corticosterone high dose 40 mg/kg, acute, ADX animals, DNFB challenge)	skin DTH vs vehicle ([3]; corticosterone high dose 40 mg/kg, acute, ADX animals, DNFB challenge, listed as Corticosterone)
CNC[C@H](O)c1ccc(O)c(O)c1 [epinephrine, reference compound]	significantly larger numbers of lymphocytes in cervical lymph nodes	higher lymphocyte numbers in cervical lymph nodes	enhanced skin DTH; also recorded: enhanced DTH response	significant dose-dependent enhancement of skin DTH	dose dependent increase in skin DTH	enhance the immune reaction observed during the challenge or recall phase of DTH	–	–	–	–	–	–	–	–	–	–
C[C@]12C[C@H](O)[C@H]3[C@@H](CCC4=CC(=O)CC[C@@]43C)[C@@H]1CC[C@@H]2C(=O)CO [corticosterone]	significantly larger numbers of lymphocytes in cervical lymph nodes; also recorded: higher lymphocyte numbers in cervical lymph nodes	–	enhanced skin DTH; also recorded: enhanced DTH response	–	–	enhance the immune reaction observed during the challenge or recall phase of DTH	binds a large proportion of circulating corticosterone	greater than that induced by epinephrine	significantly suppressed skin DTH	lower DTH responses than control animals	significant enhancement of skin DTH	significantly larger DTH response than vehicle treated animals	significant enhancement of skin DTH; also recorded: enhanced the DTH response	significantly larger DTH response than vehicle treated animals	significantly suppressed skin DTH	lower DTH responses than control animals
